Patent US20040198605A1, “Growth promoter for gramineous plants” (priority 2001, published 2004)
“And” between values parts separate entries of the source, which are not always exact repeats. Equal values may be shown once.

Experiments:
[1] = tested on: Lawn sods (bent grass; breed name: BENCROSS); test: Soil culture of lawns, leaf surface sprinkling test; type: in vivo; conditions: for Weight of Cut Stem/Leaf after Dried (mean of three pots) / Weight of Cut Stem/Leaf after Dried (individual pots): cut on 77th day; for Weight of Cut Stem/Leaf after Dried (individual pots): three pots
Experimental: Lawn sods having a diameter of 4 cm and a thickness of 3 cm (bent grass; breed name: BENCROSS) were each planted in 1/50 m^2 Wagner pots, and a leaf surface sprinkling test was carried out on a group of three pots. To the soil of each pot, a chemical fertilizer (12-8-10) was add-mixed as the initial fertilizer in an amount of 1 g/pot. Serine was diluted with water to the concentrations shown in the following Table 1 and sprinkled by means of a sprinkler on the 10th day and 24th day after planting. On the 77th day after planting, the plant parts exposed on the ground were cut, and the weight thereof after dried was measured.

[2] = tested on: Seedlings of lawns (western lawns; Evergreen Lawn Grass); test: Hydroponics (water culture) of lawns, serine sprinkled over the surfaces of leaves; type: in vivo; conditions: 26th day
Experimental: Seedlings of lawns (western lawns; Evergreen Lawn Grass) were raised and were divided into two groups, A and B, each consisting of 60 seedlings so as to carry out water culture. A given amount of a liquid fertilizer was added to a water culture solution, to which inosine was then added to a concentration of 0.2 ppm. The testing period started on Oct. 6, 1999 and ended on Nov. 1, 1999 (26 days). Group A was set as a control area. As for Group B, 5 ml of a solution so prepared as to have a serine concentration of 20 ppm was sprinkled over the surfaces of leaves every day over a period of 15 days. On the 26th day, the weight of 5 average grown seedlings selected from each group was measured.

[3] = 5 ml of serine 20 ppm sprinkled on leaves daily for 15 days, inosine 0.2 ppm in water culture solution, 5 average seedlings

N[C@@H](CO)C(=O)O [Serine, serine]
Weight of Cut Stem/Leaf after Dried (mean of three pots) ([1]; serine 18.3 ppm sprinkled on 10th and 24th day): 2.27 ± 0.12 g/pot
Weight of Cut Stem/Leaf after Dried (individual pots) ([1]; serine 18.3 ppm sprinkled on leaf surfaces on 10th and 24th day after planting): 2.17 g/pot and 2.43 g/pot and 2.20 g/pot
Percentage (dried weight, Control = 100) ([1]; serine 18.3 ppm, 77th day, * statistically significant difference): 185*
Weight of Cut Stem/Leaf after Dried (mean of three pots) ([1]; serine 183 ppm sprinkled on 10th and 24th day): 1.27 ± 0.16 g/pot
Weight of Cut Stem/Leaf after Dried (individual pots) ([1]; serine 183 ppm sprinkled on leaf surfaces on 10th and 24th day after planting): 1.26 g/pot and 1.47 g/pot and 1.08 g/pot
Percentage (dried weight, Control = 100) ([1]; serine 183 ppm, 77th day): 104
Growth (in words) ([1]; serine-treated areas, particularly 18.3 ppm-treated areas, 77th day): good growth was observed
Average Leaf Length [2, 3]: 22 cm
Root Length [2, 3]: 4.1 cm
Root length, leaf length and total weight in the raw state (in words) ([2]; serine-treated area): good
Total Weight in Raw State ([2]; total of above-ground portions and roots of 5 undried lawn plants, serine 20 ppm on leaves daily for 15 days, inosine 0.2 ppm in water culture): 0.35 g
